The subject of series [1] is G-CSF promoter. In words: G-CSF promoter/luciferase reporter assay (high-throughput screen I), G21 cells. Particulars: for GCSF fold induction relative to solvent control: transcriptional activators.
The subject of series [2] is MMTV promoter. In words: MMTV promoter/luciferase reporter assay (high-throughput screen I, control for specificity), M10 cells. Particulars: Table 2, 6 h incubation; for MMTV fold inhibition relative to solvent control: transcriptional inhibitors; for MMTV fold induction relative to solvent control: transcriptional activators, original high-throughput assay. Type of series: cell-based, mouse. As for the experimental part: pMluci and pSV2Neo, an antibiotic resistance plasmid (84), were co-transfected into NIH/3T3 mouse fibroblast cells using the calcium phosphate precipitation method (85) with a commercially available kit (Pharmacia, Piscataway N.J.). Two days later, cells were transferred to media containing 0.4 mg/ml G418 and were grown for an additional 10-14 days. G418-resistant clones were isolated by standard methods. Once sufficient cell numbers were obtained, clones were analyzed based on several criteria: constitutive luciferase production, induction of luciferase expression by dexamethasone ([…], Sigma, St. Louis, Mo.), satisfactory attachment to microtiter plates used in the high-throughput screen (see section G) and acceptable standard deviation in multiple luciferase expression assays (see below for assay protocol). This analysis was carried out using the luciferase assay conditions described above. Of the clones which satisfied the above criteria for the high throughput screen, one clone, M10, was selected for use.

Series [3] deals with hGH promoter. In words: hGH promoter/luciferase reporter assay (high-throughput screen I), 532 cells. Type of series: cell-based, rat. Conditions: Table 2, 6 h incubation; for hGH fold inhibition relative to solvent control: transcriptional inhibitors; for hGH fold induction relative to solvent control: transcriptional activators. An excerpt: 6. a GC rat pituitary cell line, transfected with the growth hormone reporter plasmid, designated 532, deposited under ATCC Accession No. CRL 10663.

[4] abbreviates: transcriptional inhibitors, Table 2, 6 h incubation.

Results on 28 molecules are retold here after patent US5846720A, “Methods of determining chemicals that modulate expression of genes associated with cardiovascular disease” (Oncogene Science, Inc., priority 1996, dated 1998).

Read-outs that look alike come from different tables or passages of the source. Where only a bound is given, the exact number is not on record here.

Take `O=C(c1ccc(O)c(O)c1)c1c(O)cc(O)cc1O` [Chemical 660]: in series [1] (setting [4]), the “GCSF fold inhibition relative to solvent control” value is listed as 10.0 fold. Further, the “MMTV fold inhibition relative to solvent control” value in series [2] was 1.04 fold. Besides, in series [3], the “hGH fold inhibition relative to solvent control” value stood at 0.34 fold.
In the case of `CN(C)c1ccc(C(=C2C=CC(=[N+](C)C)C=C2)c2ccc([N+](C)(C)C)cc2)cc1` [Chemical 670], the “GCSF fold induction relative to solvent control” value in series [1] (Table 2, 6 h incubation) is recorded as more than 3 fold. For the same molecule, the “MMTV fold induction relative to solvent control” value in series [2] was found to be 0.79 fold. For the same molecule, the “hGH fold induction relative to solvent control” value in series [3] came to 0.52 fold.
For `C1CCNCC1` [Chemical 759], the “GCSF fold inhibition relative to solvent control” value in series [1] is 0.64. The “MMTV fold inhibition relative to solvent control” value in series [2] came out at 0.95 fold. Further, the “hGH fold inhibition relative to solvent control” value in series [3] worked out at 5.88 fold.
On to `CC(=O)OCC(=O)[C@@]1(O)CC[C@H]2[C@@H]3CCC4=CC(=O)C=C[C@]4(C)[C@H]3[C@@H](O)C[C@@]21C` [Chemical 765], for which, in series [1] (Table 2, 6 h incubation), the “GCSF fold induction relative to solvent control” value was 0.96 fold. Moreover, the “MMTV fold induction relative to solvent control” value in series [2] is listed as 2.66 fold. In addition, the “hGH fold induction relative to solvent control” value in series [3] was determined as 1.30 fold.
On to `CCOc1ccc2nc3cc(N)ccc3c(N)c2c1` [Chemical 790], for which, in series [1] (Table 2, 6 h incubation), the “GCSF fold induction relative to solvent control” value is reported as 0.01 fold. For the same molecule, the “MMTV fold induction relative to solvent control” value in series [2] is 0.58 fold. The “hGH fold induction relative to solvent control” value in series [3] was found to be 5.94 fold.
On the same counts, the results for `O=C1OC2(c3cc(I)c(O)c(I)c3Oc3c2cc(I)c(O)c3I)c2c(Cl)c(Cl)c(Cl)c(Cl)c21` [Chemical 792] are 0.94 fold, 1.21 fold and 5.31 fold.
For `NC(=O)c1ccccc1O` [Chemical 798], the “GCSF fold inhibition relative to solvent control” value in series [1] (setting [4]) is 4.76 fold. Further, in series [2], the “MMTV fold inhibition relative to solvent control” value turned out to be 0.68 fold. The “hGH fold inhibition relative to solvent control” value in series [3] was found to be 0.90 fold.
On to `Clc1ccc(Sc2cc(Cl)c(Cl)cc2Cl)cc1` [Chemical 828], for which the “GCSF fold induction relative to solvent control” value in series [1] (Table 2, 6 h incubation) is listed as 1.47 fold. The “MMTV fold induction relative to solvent control” value in series [2] is reported as 2.20 fold. Moreover, in series [3], the “hGH fold induction relative to solvent control” value is listed as 1.34 fold.
Regarding `N=c1ccc2nc3ccc(N)cc3sc-2c1` [Chemical 836], in series [1] (Table 2, 6 h incubation), the “GCSF fold induction relative to solvent control” value was 3.20 fold. In series [2], the “MMTV fold induction relative to solvent control” value is reported as 0.58 fold. Further, in series [3], the “hGH fold induction relative to solvent control” value was 0.23 fold.
Consider `CC1(C)O[C@@H]2C[C@H]3[C@@H]4CCC5=CC(=O)C=C[C@]5(C)[C@@]4(F)[C@@H](O)C[C@]3(C)[C@]2(C(=O)CO)O1` [Chemical 848], for which, in series [1] (Table 2, 6 h incubation), the “GCSF fold induction relative to solvent control” value worked out at 0.75 fold. Also, the “MMTV fold induction relative to solvent control” value in series [2] turned out to be 2.43 fold. The “hGH fold induction relative to solvent control” value in series [3] stood at 1.28 fold.
On the same counts, the results for `CCCCCCCCCCCCCCCC(=O)OCC(COC(=O)CCCCCCCCCCCCCCC)OC(=O)CCCCCCCCCCCCCCC` [Chemical 856] are 0.28 fold, 0.42 fold and 6.49 fold.
On the same counts, the results for `Nc1ccc(C=CC(=O)O)cc1` [Chemical 1234] are 4.97 fold, 1.03 fold and 0.51 fold.
Regarding `Cc1c(C2(c3cc(Br)c(O)c(Br)c3C)OS(=O)(=O)c3ccccc32)cc(Br)c(O)c1Br` [Chemical 1251], the “GCSF fold induction relative to solvent control” value in series [1] (Table 2, 6 h incubation) came out at 0.14 fold. Also, in series [2], the “MMTV fold induction relative to solvent control” value stood at 0.33 fold. The “hGH fold induction relative to solvent control” value in series [3] is recorded as 15.19 fold.
With `Clc1cc(Cl)cc(Br)c1` [Chemical 1255], the “GCSF fold induction relative to solvent control” value in series [1] (Table 2, 6 h incubation) is recorded as 6.74 fold. Moreover, the “MMTV fold induction relative to solvent control” value in series [2] is reported as 1.09 fold. Also, in series [3], the “hGH fold induction relative to solvent control” value is given as 0.43 fold.
The matching figures for `Nc1c(Cl)ncnc1Cl` [Chemical 1269]: 0.72 fold, 2.18 fold and 0.91 fold.
On to `Nc1ccc2c(c1)Cc1ccccc1-2` [Chemical 1316], for which the “GCSF fold induction relative to solvent control” value in series [1] (Table 2, 6 h incubation) came to 0.74 fold. In addition, in series [2], the “MMTV fold induction relative to solvent control” value is 2.33 fold. Further, the “hGH fold induction relative to solvent control” value in series [3] amounted to 1.39 fold.
The matching figures for `Nc1ccc2c(c1)C(=O)c1ccccc1-2` [Chemical 1318]: 1.13 fold, 2.41 fold and 0.85 fold.
Regarding `Nc1ccc(S(=O)(=O)O)c2cccc(O)c12` [Chemical 1337], the “GCSF fold induction relative to solvent control” value in series [1] (Table 2, 6 h incubation) is listed as 0.07 fold. In series [2], the “MMTV fold induction relative to solvent control” value was 0.23 fold. Besides, the “hGH fold induction relative to solvent control” value in series [3] amounted to 15.87 fold.
On the same counts, the results for `NCc1ccc(S(N)(=O)=O)cc1` [Chemical 1375] are 8.94 fold, 1.37 fold and 0.04 fold.
The matching figures for `Cc1ccc(N)c(S(=O)(=O)O)c1` [Chemical 1376]: 6.37 fold, 1.32 fold and 0.04 fold.
On the same counts, the results for `Cc1ccc(C(=O)c2ccccc2N)cc1` [Chemical 1384] are 1.33 fold, 2.43 fold and 0.50 fold.
As to `Cc1cc(N)sn1` [Chemical 1397], the “GCSF fold induction relative to solvent control” value in series [1] (Table 2, 6 h incubation) is 3.63 fold. Further, in series [2], the “MMTV fold induction relative to solvent control” value came out at 1.13 fold. Besides, the “hGH fold induction relative to solvent control” value in series [3] is recorded as 0.57 fold.
On the same counts, the results for `Nc1ccccc1SSc1ccccc1N` [Chemical 1482] are 3.99 fold, 1.07 fold and 0.54 fold.
The matching figures for `Nc1ccc(SSc2ccc(N)cc2)cc1` [Chemical 1483]: 4.64 fold, 1.09 fold and 0.38 fold.
As for `Nc1nc(-c2ccccc2)cs1` [Chemical 1499], the “GCSF fold induction relative to solvent control” value in series [1] (Table 2, 6 h incubation) is given as 0.24 fold. Moreover, in series [2], the “MMTV fold induction relative to solvent control” value was 0.61 fold. Also, the “hGH fold induction relative to solvent control” value in series [3] worked out at 5.55 fold.
On the same counts, the results for `Nc1nc2nc[nH]c2c(=S)[nH]1` [Chemical 1521] are 3.59 fold, 0.92 fold and 0.73 fold.
On the same counts, the results for `Nc1nccs1` [Chemical 1550] are 0.04 fold, 0.87 fold and 5.44 fold.
The matching figures for `NC1=NCCS1` [Chemical 1552]: 1.23 fold, 0.52 fold and 7.26 fold.
